Tests used:
Experiment in all cases: Weeding effect in post-emergence stage (greenhouse pot test)
Type in all cases: in vivo
Capsella bursa-pastoris = settings: 3 weeks after application, fresh weight control rate
From the text: (§1) The activity level criteria for plant damage (i.e., growth control rate) are as follows:
(§2) Level 5: growth control rate is above 85%; • Level 4: growth control rate is greater than or equal to 60% and less than 85%; • Level 3: growth control rate is greater than or equal to 40% and less than 60%; • Level 2: growth control rate is greater than or equal to 20% and less than 40%; • Level 1: growth control rate is greater than or equal to 5% and less than 20%; • Level 0: growth control rate is less than 5%.
(§3) The above growth control rates are fresh weight control rates.
(§4) Experiment on weeding effect in post-emergence stage:
(§5) Monocotyledonous and dicotyledonous weed seeds (Descurainia sophia, Capsella bursa-pastoris, Abutilon theophrasti, Galium aparine, Stellaria media, Lithospermum arvense, Rorippa indica, Alopecurus aequalis, Alopecurus japonicus, Eleusine indica, Beckmannia syzigachne, Sclerochloa dura, Phleum paniculatum, Veronica didyma Tenore, Bromus japonicus, Aegilops tauschii, Phalaris arundinacea, Amaranthus retrojlexus, Chenopodiaceae, Commelina communis, Sonchus arvensis, convolvulus arvensis, Cirsium setosum, Solanum nigrum, Acalypha australis, Digitaria sanguinalis, Echinochloa crusgalli, Setaria viridis, Setaria glauca, Leptochloa chinensis, Monochoria vaginalis, Sagittaria trifolia, Scirpus juncoides, Cyperus rotundus, Cyperus iria, Cyperus difformis, Fimbristylis, Portulaca oleracea, Xanthium sibiricum, Pharbitis nil, Conyza japonica, etc.) and major crop seeds (wheat, corn, rice, soybean, cotton, oilseed rape, millet, sorghum, potato, sesame, ricinus, etc.) were placed in plastic pots filled with soil, then covered with 0.5-2 cm of soil, allowed to grow in a good greenhouse environment. After 2 weeks of sowing, the test plants were treated in the 2-3 leaf stage. The tested compounds of the present invention were respectively dissolved in acetone, then added with Tween 80 and 1.5 liter/ha of emulsifiable concentrate of methyl oleate as synergist, diluted with a certain amount of water to obtain a solution with a certain concentration, and sprayed with a spray tower onto the plants. After the application, the plants were cultured for 3 weeks in the greenhouse, and then the experimental results of the weeding were counted. The doses of the used compounds were 500, 250, 125, 60, 15, 7.5 g a.i./ha, and the averages were obtained by repeating for three times.

Conyza japonica = settings: post-emergence, 3 weeks after application, fresh weight control rate
From the text: as §1, §2, §3, §4, §5

Alopecurus japonicus = settings: dose 15 g a.i./ha, 3 weeks after application, fresh weight control rate
From the text: as §1, §2, §3, §4, §5

COC(=O)C12CCCC1C(c1cc(-n3c(=O)cc(C(F)(F)F)n(C)c3=O)c(F)cc1C(F)(F)F)=NO2 (stereo not shown) [Compound 211]
Activity level (growth control rate), Capsella bursa-pastoris (Capsella bursa-pastoris; dose 15 g a.i./ha): 5 (Level 5: growth control rate is above 85%) | Activity level (growth control rate), Conyza japonica (Conyza japonica; dose 15 g a.i./ha): 5 (Level 5: growth control rate is above 85%)

COC(=O)C12CCCC1C(c1cc(-n3c(=O)cc(C(F)(F)F)n(C)c3=O)c(F)cc1C#N)=NO2 (stereo not shown) [Compound 212]
Activity level (growth control rate), Capsella bursa-pastoris (Capsella bursa-pastoris; dose 15 g a.i./ha): 5 (Level 5: growth control rate is above 85%) | Activity level (growth control rate), Conyza japonica (Conyza japonica; dose 15 g a.i./ha): 5 (Level 5: growth control rate is above 85%)

Cn1c(C(F)(F)F)cc(=O)n(-c2cc(C3=NOC4(C(=O)OCc5ccccc5F)CCCC34)c(Cl)cc2F)c1=O (stereo not shown) [Compound 264]
Activity level (growth control rate), Capsella bursa-pastoris (Capsella bursa-pastoris; dose 15 g a.i./ha): 5 (Level 5: growth control rate is above 85%) | Activity level (growth control rate), Conyza japonica (Conyza japonica; dose 15 g a.i./ha): 4 (Level 4: growth control rate is greater than or equal to 60% and less than 85%)

CCSC(=O)C12CCCC1C(c1cc(-n3c(=O)cc(C(F)(F)F)n(C)c3=O)c(F)cc1Cl)=NO2 (stereo not shown) [Compound 334]
Activity level (growth control rate), Capsella bursa-pastoris (Capsella bursa-pastoris; dose 15 g a.i./ha): 5 (Level 5: growth control rate is above 85%) | Activity level (growth control rate), Conyza japonica (Conyza japonica; dose 15 g a.i./ha): 4 (Level 4: growth control rate is greater than or equal to 60% and less than 85%)

COC(=O)C12CCCC1(O)C(c1cc(-n3c(=O)cc(C(F)(F)F)n(C)c3=O)c(F)cc1Cl)=NO2 (stereo not shown) [Compound 351]
Activity level (growth control rate), Conyza japonica (Conyza japonica; dose 15 g a.i./ha): 4 (Level 4: growth control rate is greater than or equal to 60% and less than 85%)

COC(=O)C12CCCCC1C(c1cc(-n3c(=O)cc(C(F)(F)F)n(C)c3=O)c(F)cc1Cl)=NO2 (stereo not shown) [Compound 370]
Activity level (growth control rate), Capsella bursa-pastoris (Capsella bursa-pastoris; dose 125 g a.i./ha): 5 (Level 5: growth control rate is above 85%)

COC(=O)C12CSCC1C(c1cc(-n3c(=O)cc(C(F)(F)F)n(C)c3=O)c(F)cc1Cl)=NO2 (stereo not shown) [Compound 374]
Activity level (growth control rate), Capsella bursa-pastoris (Capsella bursa-pastoris; dose 125 g a.i./ha): 5 (Level 5: growth control rate is above 85%) | Activity level (growth control rate), Conyza japonica (Conyza japonica; dose 125 g a.i./ha): 5 (Level 5: growth control rate is above 85%)

COC(=O)C12CCCC1C(c1cc(-n3c(=O)n(C)c(=S)n(C)c3=S)c(F)cc1Cl)=NO2 (stereo not shown) [Compound 395]
Activity level (growth control rate), Capsella bursa-pastoris (Capsella bursa-pastoris; dose 125 g a.i./ha): 5 (Level 5: growth control rate is above 85%)

COC(=O)C12CCCCCC1C(c1cc(-n3c(=O)cc(C(F)(F)F)n(C)c3=O)c(F)cc1Cl)=NO2 (stereo not shown) [Compound 435]
Activity level (growth control rate), Capsella bursa-pastoris (Capsella bursa-pastoris; dose 15 g a.i./ha): 5 (Level 5: growth control rate is above 85%)

COC(=O)C12CCCC1C(c1cc(-n3c(=O)cc(C(F)(F)F)n(C)c3=O)c(Cl)cc1Cl)=NO2 (stereo not shown) [Compound 440]
Activity level (growth control rate), Capsella bursa-pastoris (Capsella bursa-pastoris; dose 15 g a.i./ha): 5 (Level 5: growth control rate is above 85%)

COC(=O)C12CCC(O)C1C(c1cc(-n3c(=O)cc(C(F)(F)F)n(C)c3=O)c(F)cc1Cl)=NO2 (stereo not shown) [Compound 444]
Activity level (growth control rate), Alopecurus japonicus (Alopecurus japonicus): 4 (Level 4: growth control rate is greater than or equal to 60% and less than 85%) | Activity level (growth control rate), Capsella bursa-pastoris (Capsella bursa-pastoris; dose 15 g a.i./ha): 5 (Level 5: growth control rate is above 85%)

COC(=O)C12CC(C)CC1C(c1cc(-n3c(=O)cc(C(F)(F)F)n(C)c3=O)c(F)cc1Cl)=NO2 (stereo not shown) [Compound 456]
Activity level (growth control rate), Capsella bursa-pastoris (Capsella bursa-pastoris; dose 15 g a.i./ha): 5 (Level 5: growth control rate is above 85%) | Activity level (growth control rate), Conyza japonica (Conyza japonica; dose 15 g a.i./ha): 4 (Level 4: growth control rate is greater than or equal to 60% and less than 85%)

COC(=O)C1CC2C(c3cc(-n4c(=O)cc(C(F)(F)F)n(C)c4=O)c(F)cc3Cl)=NOC2(C(=O)OC)C1 (stereo not shown) [Compound 464]
Activity level (growth control rate), Alopecurus japonicus (Alopecurus japonicus): 5 (Level 5: growth control rate is above 85%) | Activity level (growth control rate), Capsella bursa-pastoris (Capsella bursa-pastoris; dose 15 g a.i./ha): 5 (Level 5: growth control rate is above 85%)

CCOC(=O)C12ON=C(c3cc(-n4c(=O)cc(C(F)(F)F)n(C)c4=O)c(F)cc3Cl)C1CCC2F (stereo not shown) [Compound 472]
Activity level (growth control rate), Capsella bursa-pastoris (Capsella bursa-pastoris; dose 15 g a.i./ha): 5 (Level 5: growth control rate is above 85%) | Activity level (growth control rate), Conyza japonica (Conyza japonica; dose 15 g a.i./ha): 4 (Level 4: growth control rate is greater than or equal to 60% and less than 85%)

CCOC(=O)C12ON=C(c3cc(-n4c(=O)cc(C(F)(F)F)n(C)c4=O)c(F)cc3Cl)C1CCC2=NO (stereo not shown) [Compound 491]
Activity level (growth control rate), Capsella bursa-pastoris (Capsella bursa-pastoris; dose 15 g a.i./ha): 5 (Level 5: growth control rate is above 85%)

COC(=O)C12CCCC1C(c1cc(-n3c(=O)cc(C(F)(F)F)n(C)c3=S)c(F)cc1Cl)=NO2 (stereo not shown) [Compound 497]
Activity level (growth control rate), Capsella bursa-pastoris (Capsella bursa-pastoris; dose 15 g a.i./ha): 5 (Level 5: growth control rate is above 85%)

COC(=O)C12CCCC1C(c1cc(N3C(=O)CC(=C(C)C)C3=O)c(F)cc1Cl)=NO2 (stereo not shown) [Compound 544]
Activity level (growth control rate), Capsella bursa-pastoris (Capsella bursa-pastoris; dose 125 g a.i./ha): 5 (Level 5: growth control rate is above 85%)

COC(=O)C12CCCC1C(c1cc(N3C(=O)C4CCCCC4C3=O)c(F)cc1Cl)=NO2 (stereo not shown) [Compound 545]
Activity level (growth control rate), Capsella bursa-pastoris (Capsella bursa-pastoris; dose 125 g a.i./ha): 5 (Level 5: growth control rate is above 85%)

O=C1C2CC=CCC2C(=O)N1c1cc(C2=NOC3(C(=O)O)CCCC23)c(Cl)cc1F (stereo not shown) [Compound 546]
Activity level (growth control rate), Capsella bursa-pastoris (Capsella bursa-pastoris; dose 125 g a.i./ha): 5 (Level 5: growth control rate is above 85%)

COC(=O)C12CCCC1C(c1cc(N3C(=O)CC(C)CC3=O)c(F)cc1Cl)=NO2 (stereo not shown) [Compound 547]
Activity level (growth control rate), Capsella bursa-pastoris (Capsella bursa-pastoris; dose 125 g a.i./ha): 5 (Level 5: growth control rate is above 85%)

COC(=O)C12CCCC1C(c1cc(-n3c(=O)c4ccccc4n(C)c3=O)c(F)cc1Cl)=NO2 (stereo not shown) [Compound 551]
Activity level (growth control rate), Capsella bursa-pastoris (Capsella bursa-pastoris; dose 125 g a.i./ha): 5 (Level 5: growth control rate is above 85%)

CCCN1C(=O)C(=O)N(c2cc(C3=NOC4(C(=O)OC)CCCC34)c(Cl)cc2F)C1=S (stereo not shown) [Compound 552]
Activity level (growth control rate), Capsella bursa-pastoris (Capsella bursa-pastoris; dose 125 g a.i./ha): 5 (Level 5: growth control rate is above 85%)

CCCNC(=O)C12CCCC1C(c1cc(N3C(=O)C(=O)N(CCC)C3=S)c(F)cc1Cl)=NO2 (stereo not shown) [Compound 553]
Activity level (growth control rate), Capsella bursa-pastoris (Capsella bursa-pastoris; dose 15 g a.i./ha): 5 (Level 5: growth control rate is above 85%)

COC(=O)C12CCCC1C(c1cc(-n3nc4n(c3=O)CCCC4)c(F)cc1Cl)=NO2 (stereo not shown) [Compound 561]
Activity level (growth control rate), Capsella bursa-pastoris (Capsella bursa-pastoris; dose 125 g a.i./ha): 5 (Level 5: growth control rate is above 85%)

COC(=O)C12CCCC1C(c1cc(/N=c3\scc(C(F)(F)F)n3C)c(F)cc1Cl)=NO2 (stereo not shown) [Compound 574]
Activity level (growth control rate), Capsella bursa-pastoris (Capsella bursa-pastoris; dose 15 g a.i./ha): 5 (Level 5: growth control rate is above 85%) | Activity level (growth control rate), Conyza japonica (Conyza japonica; dose 15 g a.i./ha): 5 (Level 5: growth control rate is above 85%)

COC(=O)C12CCCC1C(c1cc(-c3nnc(C(F)(F)F)cc3O)c(F)cc1Cl)=NO2 (stereo not shown) [Compound 577]
Activity level (growth control rate), Capsella bursa-pastoris (Capsella bursa-pastoris; dose 125 g a.i./ha): 5 (Level 5: growth control rate is above 85%) | Activity level (growth control rate), Conyza japonica (Conyza japonica; dose 125 g a.i./ha): 5 (Level 5: growth control rate is above 85%)

COC(=O)C12CCCC1C(c1cc(-c3nn(C)c(C(F)(F)F)cc3=O)c(F)cc1Cl)=NO2 (stereo not shown) [Compound 579]
Activity level (growth control rate), Alopecurus japonicus (Alopecurus japonicus): 4 (Level 4: growth control rate is greater than or equal to 60% and less than 85%) | Activity level (growth control rate), Capsella bursa-pastoris (Capsella bursa-pastoris; dose 15 g a.i./ha): 5 (Level 5: growth control rate is above 85%)

COC(=O)C12CCCC1C(c1cc(-c3ncc(S(C)(=O)=O)cc3Cl)c(F)cc1Cl)=NO2 (stereo not shown) [Compound 584]
Activity level (growth control rate), Capsella bursa-pastoris (Capsella bursa-pastoris; dose 125 g a.i./ha): 5 (Level 5: growth control rate is above 85%) | Activity level (growth control rate), Conyza japonica (Conyza japonica; dose 125 g a.i./ha): 5 (Level 5: growth control rate is above 85%)

COC(=O)C12CCCC1C(c1cc(-c3ncc(C(F)(F)F)c(C)c3Cl)c(F)cc1Cl)=NO2 (stereo not shown) [Compound 586]
Activity level (growth control rate), Capsella bursa-pastoris (Capsella bursa-pastoris; dose 125 g a.i./ha): 5 (Level 5: growth control rate is above 85%) | Activity level (growth control rate), Conyza japonica (Conyza japonica; dose 125 g a.i./ha): 5 (Level 5: growth control rate is above 85%)

COC(=O)C12CCCC1C(c1cc(-c3cc(C(F)(F)F)n(C)c3)c(F)cc1Cl)=NO2 (stereo not shown) [Compound 587]
Activity level (growth control rate), Capsella bursa-pastoris (Capsella bursa-pastoris; dose 125 g a.i./ha): 5 (Level 5: growth control rate is above 85%)

COC(=O)C12CCCC1C(c1cc(-c3c(Cl)c(C(F)(F)F)n(C)c3Cl)c(F)cc1Cl)=NO2 (stereo not shown) [Compound 588]
Activity level (growth control rate), Capsella bursa-pastoris (Capsella bursa-pastoris; dose 125 g a.i./ha): 5 (Level 5: growth control rate is above 85%)

COC(=O)C12CCCC1C(c1cc(-c3cc(C(F)(F)F)nn3C)c(F)cc1Cl)=NO2 (stereo not shown) [Compound 589]
Activity level (growth control rate), Capsella bursa-pastoris (Capsella bursa-pastoris; dose 125 g a.i./ha): 5 (Level 5: growth control rate is above 85%)

COC(=O)C12CCCC1C(c1cc(-c3c(Br)c(C(F)(F)F)nn3C)c(F)cc1Cl)=NO2 (stereo not shown) [Compound 590]
Activity level (growth control rate), Capsella bursa-pastoris (Capsella bursa-pastoris; dose 125 g a.i./ha): 5 (Level 5: growth control rate is above 85%)

COC(=O)C12CCCC1C(c1cc(NC(=O)C3=C(C(=O)O)CCCC3)c(F)cc1Cl)=NO2 (stereo not shown) [Compound 597]
Activity level (growth control rate), Capsella bursa-pastoris (Capsella bursa-pastoris; dose 15 g a.i./ha): 5 (Level 5: growth control rate is above 85%) | Activity level (growth control rate), Conyza japonica (Conyza japonica; dose 15 g a.i./ha): 4 (Level 4: growth control rate is greater than or equal to 60% and less than 85%)
